Measurements reported in the CheMixHub viscosity set.

Assay: xn = mol fraction of the nth substance listed

CCCCOC(=O)c1ccccc1 + CCCCCCCCCCCC
101 kPa
Settings	viscosity [mPa·s]
298.15 K, x2 = 0.0369	2.578
298.15 K, x2 = 0.0748	2.463
298.15 K, x2 = 0.1143	2.347
298.15 K, x2 = 0.1505	2.251
298.15 K, x2 = 0.1939	2.149
298.15 K, x2 = 0.2329	2.064
298.15 K, x2 = 0.2775	1.977
298.15 K, x2 = 0.3263	1.893
298.15 K, x2 = 0.3672	1.834
298.15 K, x2 = 0.4144	1.759
298.15 K, x2 = 0.4576	1.702
298.15 K, x2 = 0.5085	1.649
298.15 K, x2 = 0.5525	1.594
298.15 K, x2 = 0.6026	1.549
298.15 K, x2 = 0.6499	1.506
298.15 K, x2 = 0.7176	1.457
298.15 K, x2 = 0.7662	1.428
298.15 K, x2 = 0.8184	1.399
298.15 K, x2 = 0.8852	1.372
308.15 K, x2 = 0.0565	2.041
308.15 K, x2 = 0.0869	1.968
308.15 K, x2 = 0.1399	1.857
308.15 K, x2 = 0.1662	1.807
308.15 K, x2 = 0.2145	1.722
308.15 K, x2 = 0.2546	1.662
308.15 K, x2 = 0.3019	1.596
308.15 K, x2 = 0.3408	1.548
308.15 K, x2 = 0.3915	1.49
308.15 K, x2 = 0.4297	1.451
308.15 K, x2 = 0.4845	1.4
308.15 K, x2 = 0.5231	1.367
308.15 K, x2 = 0.5719	1.328
308.15 K, x2 = 0.6276	1.287
308.15 K, x2 = 0.68	1.256
308.15 K, x2 = 0.7278	1.229
308.15 K, x2 = 0.7842	1.202
308.15 K, x2 = 0.8501	1.176
308.15 K, x2 = 0.9392	1.151
318.15 K, x2 = 0.0245	1.764
318.15 K, x2 = 0.0618	1.688
318.15 K, x2 = 0.101	1.612
318.15 K, x2 = 0.1422	1.543
318.15 K, x2 = 0.181	1.487
318.15 K, x2 = 0.2247	1.427
318.15 K, x2 = 0.2652	1.376
318.15 K, x2 = 0.3117	1.325
318.15 K, x2 = 0.355	1.282
318.15 K, x2 = 0.4033	1.238
318.15 K, x2 = 0.4479	1.202
318.15 K, x2 = 0.5006	1.163
318.15 K, x2 = 0.5557	1.127
318.15 K, x2 = 0.604	1.099
318.15 K, x2 = 0.6185	1.091
318.15 K, x2 = 0.7124	1.045
318.15 K, x2 = 0.7679	1.024
318.15 K, x2 = 0.8278	1.006
318.15 K, x2 = 0.9612	0.974

CCCCOC(=O)c1ccccc1 + CCCCCCCCCCCCCC
101 kPa
Settings	viscosity [mPa·s]
298.15 K, x2 = 0.0346	2.623
298.15 K, x2 = 0.0683	2.562
298.15 K, x2 = 0.1072	2.49
298.15 K, x2 = 0.1432	2.436
298.15 K, x2 = 0.1795	2.38
298.15 K, x2 = 0.2175	2.328
298.15 K, x2 = 0.2506	2.282
298.15 K, x2 = 0.2944	2.226
298.15 K, x2 = 0.3362	2.186
298.15 K, x2 = 0.3761	2.154
298.15 K, x2 = 0.4036	2.128
298.15 K, x2 = 0.472	2.08
298.15 K, x2 = 0.5203	2.055
298.15 K, x2 = 0.5754	2.03
298.15 K, x2 = 0.6238	2.015
298.15 K, x2 = 0.6833	1.995
298.15 K, x2 = 0.7394	1.989
298.15 K, x2 = 0.8084	1.99
298.15 K, x2 = 0.8738	2.005
308.15 K, x2 = 0.0474	2.117
308.15 K, x2 = 0.0876	2.049
308.15 K, x2 = 0.1255	1.995
308.15 K, x2 = 0.1576	1.956
308.15 K, x2 = 0.1932	1.916
308.15 K, x2 = 0.2315	1.876
308.15 K, x2 = 0.2692	1.842
308.15 K, x2 = 0.3166	1.806
308.15 K, x2 = 0.3536	1.783
308.15 K, x2 = 0.3967	1.758
308.15 K, x2 = 0.4455	1.735
308.15 K, x2 = 0.4967	1.714
308.15 K, x2 = 0.5574	1.696
308.15 K, x2 = 0.5991	1.684
308.15 K, x2 = 0.6454	1.675
308.15 K, x2 = 0.7094	1.667
308.15 K, x2 = 0.7691	1.664
308.15 K, x2 = 0.8229	1.665
308.15 K, x2 = 0.9132	1.68
318.15 K, x2 = 0.0221	1.779
318.15 K, x2 = 0.0602	1.728
318.15 K, x2 = 0.0938	1.687
318.15 K, x2 = 0.1331	1.646
318.15 K, x2 = 0.1693	1.612
318.15 K, x2 = 0.2101	1.576
318.15 K, x2 = 0.249	1.546
318.15 K, x2 = 0.2933	1.516
318.15 K, x2 = 0.3356	1.491
318.15 K, x2 = 0.3836	1.467
318.15 K, x2 = 0.4273	1.448
318.15 K, x2 = 0.4797	1.428
318.15 K, x2 = 0.5267	1.413
318.15 K, x2 = 0.5825	1.399
318.15 K, x2 = 0.6341	1.388
318.15 K, x2 = 0.6948	1.38
318.15 K, x2 = 0.7506	1.377
318.15 K, x2 = 0.8156	1.375
318.15 K, x2 = 0.8778	1.381

CCNCC + CCCCCCCCCCO
viscosity [mPa·s], 101 kPa
Settings	x1 = 0.5973	x2 = 0.0971	x2 = 0.1985	x2 = 0.2971	x2 = 0.4003	x2 = 0.5148	x2 = 0.6024	x2 = 0.7216	x2 = 0.8014	x2 = 0.8997
298.15 K	–	0.472	0.762	1.184	1.834	2.865	3.979	5.858	7.47	9.664
303 K	2.015	–	–	–	–	–	–	–	–	–
313.15 K	–	0.378	0.576	0.851	1.254	1.87	2.556	3.617	4.497	5.631

Nc1ccccc1 + CCCCCCCCCCO
viscosity [mPa·s], 100 kPa
Settings	x1 = 0.0718	x1 = 0.1593	x1 = 0.2335	x1 = 0.3471	x1 = 0.4452	x1 = 0.5618	x1 = 0.6428	x1 = 0.7439	x1 = 0.8518	x1 = 0.9439
293.15 K	12.8	11.23	10.05	8.62	7.44	6.23	5.57	4.95	4.47	4.31
303.15 K	8.75	7.6	6.85	5.92	5.25	4.38	3.94	3.56	3.23	3.12
313.15 K	6.16	5.4	4.9	4.28	3.84	3.3	2.97	2.7	2.5	2.44
323.15 K	4.47	4	3.65	3.21	2.89	2.51	2.28	2.1	1.95	1.91

CCNCC + CCCCCCCCCO
viscosity [mPa·s], 100 kPa
Settings	x1 = 0.0799	x1 = 0.1586	x1 = 0.2389	x1 = 0.3485	x1 = 0.4391	x1 = 0.5594	x1 = 0.649	x1 = 0.7395	x1 = 0.8499	x1 = 0.9397
293.15 K	10.36	9.36	8.35	7.05	5.99	4.66	3.71	2.79	1.71	0.87
303.15 K	7.11	6.4	5.7	4.78	4.05	3.14	2.5	1.88	1.17	0.63
313.15 K	5.05	4.53	4.03	3.37	2.85	2.21	1.77	1.34	0.85	0.49
323.15 K	3.71	3.34	2.97	2.49	2.12	1.65	1.33	1.02	0.67	0.4

COCCOCCOCCOC + CCCCCCCCCO
101 kPa
Settings	viscosity [mPa·s]
293.15 K, x1 = 0.06286	8.733
293.15 K, x1 = 0.0721	8.424
293.15 K, x1 = 0.157	6.409
293.15 K, x1 = 0.1967	5.797
293.15 K, x1 = 0.3999	3.779
293.15 K, x1 = 0.4952	3.246
293.15 K, x1 = 0.5949	2.852
293.15 K, x1 = 0.6909	2.575
293.15 K, x1 = 0.7539	2.434
293.15 K, x1 = 0.8907	2.226
293.15 K, x1 = 0.9525	2.165
303.15 K, x1 = 0.06693	6.211
303.15 K, x1 = 0.08755	5.811
303.15 K, x1 = 0.1949	4.339
303.15 K, x1 = 0.2889	3.545
303.15 K, x1 = 0.3982	2.936
303.15 K, x1 = 0.4875	2.576
303.15 K, x1 = 0.5926	2.286
303.15 K, x1 = 0.698	2.082
303.15 K, x1 = 0.7829	1.952
303.15 K, x1 = 0.9059	1.83
303.15 K, x1 = 0.9404	1.795
313.15 K, x1 = 0.05997	4.72
313.15 K, x1 = 0.1	4.218
313.15 K, x1 = 0.1977	3.34
313.15 K, x1 = 0.2965	2.774
313.15 K, x1 = 0.3974	2.365
313.15 K, x1 = 0.4862	2.111
313.15 K, x1 = 0.5834	1.9
313.15 K, x1 = 0.6643	1.767
313.15 K, x1 = 0.802	1.635
313.15 K, x1 = 0.915	1.521
313.15 K, x1 = 0.9497	1.503
